In ChEMBL document CHEMBL4616670, “Phosphine Oxides from a Medicinal Chemist's Perspective: Physicochemical and in Vitro Parameters Relevant for Drug Discovery” (J Med Chem, 2020):
Values after ≈ are worked out from the molar mass of the structure shown.

What was measured:
[1] = Basic dissociation constant, pKb of the compound by UV absorption spectra analysis or potentiometric titration technique; format: physicochemical
physchem [2] = details: octanol/water, pH 2
Description: Octanol/water partition coefficient, log D of the compound at pH 2

physchem [3] = details: octanol/water, pH 11
Description: Octanol/water partition coefficient, log D of the compound at pH 11

physchem [4] = details: pH 6.8 buffer
physchem [5] = details: pH 6.8 buffer; remark: listed apart in the source
in vitro [6] = details: human, Caco-2
Description: Permeability across apical to basolateral side in human Caco2 cells measured up to 2 hrs by LC-MS/MS analysis or scintillation counting method

in vitro [7] = details: human, Caco-2; remark: listed apart in the source
Description: Efflux ratio of permeability in human Caco2 cells measured up to 2 hrs by LC-MS/MS analysis or scintillation counting method

[8] = 168 h
Description: Chemical stability of the compound in MeOH/NH3 solution at pH >10 assessed as compound decomposition measured after 7 days by UV-RP-HPLC analysis

in vitro [9] = details: human, liver microsomes
Description: Half life in human liver microsomes at 1 uM incubated prior to NADPH addition by LC-MS/MS analysis

in vitro [10] = details: human, liver microsomes; remark: listed apart in the source
Description: Stability in human liver microsomes at 1 uM incubated prior to NADPH addition by LC-MS/MS analysis relative to hepatic blood flow

physchem [11] = details: MeOH/HCl solution
Description: Chemical stability of the compound in MeOH/HCl solution at pH <1 assessed as compound decomposition measured after 7 days by UV-RP-HPLC analysis

[12] = Chemical stability of the compound in MeOH/HCl solution at pH <1 assessed as compound decomposition measured after 1 day by UV-RP-HPLC analysis; format: physicochemical; details: read-out: Drug degradation
in vitro [13] = details: human, plasma
Description: Protein binding in human plasma

Row | SMILES | pKb [1] | logD (physchem [2]) | logD (physchem [3]) | solubility thermodynamic at 24 h (physchem [4]) [µg/mL] | solubility thermodynamic at 24 h (physchem [5]) [µg/mL] | Papp A→B at 2 h (in vitro [6]) [×10⁻⁶ cm/s] | efflux ratio at 2 h (in vitro [7]) | Drug degradation [8] [%] | half-life at 1 µM (in vitro [9]) [h] | hepatic extraction ratio at 1 µM (in vitro [10]) | degraded at 168 h (physchem [11]) [%] | degraded at 24 h [12] [%] | fraction unbound (in vitro [13])
1 | CNS(=N)(=O)c1ccc(C(F)(F)F)cc1 (configuration not stated) | 2.4 | 0.8 | 1 | > 54 | 6900 (≈ 29000 µM) | 70 | 0.9 | – | – | – | – | – | –
2 | O=S1(c2ccc(C(F)(F)F)cc2)=NCCCC1 (configuration not stated) | 3.8 | 0.1 | 1.8 | > 59 | 4700 (≈ 17900 µM) | 84 | 0.7 | – | – | – | – | – | –
3 | CS(=N)(=O)c1ccc(C(F)(F)F)cc1 (configuration not stated) | 2.5 | 0.8 | 0.9 | > 50 | 9100 (≈ 40800 µM) | 88 | 0.7 | – | – | – | – | – | –
4 | CN1CCP(=O)(c2ccc(C(F)(F)F)cc2)CC1 | 6.3 | 0 | 0.9 | > 66 | > 30000 | 52 | 0.7 | < 10 | > 2.17 | < 0.23 | < 10 | – | –
5 | CN1CCN(C)P1(=O)c1ccc(C(F)(F)F)cc1 | – | – | 2 | > 64 | > 30000 | – | – | < 10 | – | – | – | > 90 | –
6 | CCOP(=O)(O)c1ccc(C(=O)Nc2ccc(C)c(Nc3nccc(-c4cccnc4)n3)c2)cc1 | – | 1 | -0.6 | > 122 | 1100 (≈ 2250 µM) | < 0.1 | – | – | > 2.17 | < 0.23 | – | – | 0.046
7 | CC(C)OP(=O)(OC(C)C)c1ccc(C(F)(F)F)cc1 | – | 4.3 | 4.2 | 29 (≈ 93.5 µM) | 400 (≈ 1290 µM) | 84 | 0.5 | < 10 | > 2.17 | < 0.23 | < 10 | – | –
8 | COP(=O)(OC)c1ccc(C(F)(F)F)cc1 | – | 2.5 | 2.2 | 50 (≈ 197 µM) | 10100 (≈ 39700 µM) | 85 | 0.5 | < 10 | > 2.17 | < 0.23 | < 10 | – | –
9 | Cc1ccc(NC(=O)c2ccc(P(C)(=O)O)cc2)cc1Nc1nccc(-c2cccnc2)n1 | – | 0.6 | -0.6 | > 115 | > 10000 | < 0.1 | – | – | > 2.17 | < 0.23 | – | – | 0.119
10 | CC(C)N1CCP(=O)(c2ccc(C(F)(F)F)cc2)CC1 | 7 | 0.2 | 2 | > 68 | 23000 (≈ 75300 µM) | 84 | 0.5 | < 10 | > 2.17 | < 0.23 | < 10 | – | –
11 | CCOP(=O)(OCC)c1ccc(C(F)(F)F)cc1 | – | 3.4 | 3.2 | > 61 | 1300 (≈ 4610 µM) | 95 | 0.6 | < 10 | > 2.17 | < 0.23 | < 10 | – | –
12 | O=P1(c2ccc(C(F)(F)F)cc2)NCCCN1 | – | – | 1.1 | > 61 | 12300 (≈ 46600 µM) | 42 | 0.7 | < 10 | > 2.17 | < 0.23 | – | > 90 | –
13 | CN1CCCOP1(=O)c1ccc(C(F)(F)F)cc1 (configuration not stated) | – | 2.5 | 1.9 | 53 (≈ 190 µM) | 7500 (≈ 26900 µM) | 64 | 0.5 | < 10 | > 2.17 | < 0.23 | – | > 90 | –
14 | O=P1(c2ccc(C(F)(F)F)cc2)CCNCC1 | 6.9 | 0 | 0.5 | > 61 | 28000 (≈ 106000 µM) | 13 | 1.1 | < 10 | > 2.17 | < 0.23 | < 10 | – | –
15 | CN1CCCN(C)P1(=O)c1ccc(C(F)(F)F)cc1 | – | 3 | 2.7 | > 68 | 11100 (≈ 38000 µM) | 81 | 0.5 | < 10 | > 2.17 | < 0.23 | – | > 90 | –
16 | Cc1ccc(NC(=O)c2ccc(P(=O)(O)O)cc2)cc1Nc1nccc(-c2cccnc2)n1 | – | 0.4 | -1 | > 115 | 700 (≈ 1520 µM) | < 0.3 | – | – | > 2.17 | < 0.23 | – | – | 0.021
